Reference: the supplement of paper PMC10331698
± gives the standard deviation of the averaged measurements.

Columns and labels:
[1] = compound: T1, C=CC(=O)OCC(F)(F)C(F)(F)C(F)(F)COC(=O)C=C [1H,1H,5H,5H-Perfluoro-1,5-pentanediol diacrylate]; test: LOEC (log10 uM (lowest observed effect concentration))
Method: (§1)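 BioMAP Diversity Plus panel in human primary cell co-cultures, 4 concentrations in duplicate blinded samples. Responses are log10 fold change versus DMSO control, processed with tcpl v2.1.0. A hit is called when responses at any concentration exceed the cutoff (the larger of 3*bmad or log10(1.2)); the lowest observed effect concentration (modl_ga, log10 uM) is reported for hits.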

[2] = compound: COC(=O)C(F)(F)C(F)(F)OC(F)(C(F)(F)F)C(F)(F)OC(F)=C(F)F [Methyl perfluoro(3-(1-ethenyloxypropan-2-yloxy)propanoate)]; test: level (log10 ratio to DMSO vehicle control); higher = higher biomarker level / cell amount than vehicle control; conditions: in DMSO
Method: (§2)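 BioMAP Diversity Plus panel of 12 human primary cell co-culture systems (3C, 4H, LPS, SAg, BT, BF4T, BE3C, CASM3C, HDF3CGF, KF3CT, MyoF, Mphg). Compounds were added 1 h before stimulation and left for 24 h (MyoF 48 h; BT 72 h for soluble read-outs or 6 d for IgG). Biomarkers were read by ELISA, cytotoxicity by SRB, PBMC viability and proliferation by Alamar Blue. Each well value was divided by the mean of 8 DMSO control wells on the same plate and log10 transformed; duplicate blinded samples were tested at 4 concentrations.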

[3] = compound: O=S(=O)(F)C(F)(F)C(F)(F)C(F)(F)C(F)(F)C(F)(F)C(F)(F)C(F)(F)C(F)(F)F [Perfluorooctanesulfonyl fluoride]; test: as above; conditions: in DMSO
Method: as §2

[4] = compound: NC(=O)C(F)(F)C(F)(F)C(F)(F)C(F)F; test: as above; conditions: in DMSO
Method: as §2

[5] = compound: O=C(O)C=CC(F)(C(F)(F)F)C(F)(F)F [3-(Perfluoroisopropyl)-2-propenoic acid]; test: as above; conditions: in DMSO
Method: as §2

[6] = compound: O=S(=O)(O)C(F)(F)C(F)(F)C(F)(F)C(F)(F)C(F)(F)C(F)(F)C(F)(F)C(F)(F)C(F)(F)C(F)(F)F [Sodium perfluorodecanesulfonate]; test: as above; conditions: in DMSO
Method: as §2

[7] = compound: T1, 1H,1H,5H,5H-Perfluoro-1,5-pentanediol diacrylate; test: as above; conditions: 6700 nM; in DMSO
Method: as §2

Hexafluoroamylene glycol = compound: OCC(F)(F)C(F)(F)C(F)(F)CO [Hexafluoroamylene glycol]; test: as above; conditions: in DMSO
Method: as §2

[8] = compound: FC(F)(F)C(F)(F)C(F)(F)C(F)(F)C(F)(F)C(F)(F)C(F)(F)I [1-Iodopentadecafluoroheptane]; test: as above; conditions: in DMSO
Method: as §2

[9] = compound: O=S(=O)(Cl)C(F)(F)C(F)(F)C(F)(F)C(F)(F)C(F)(F)C(F)(F)C(F)(F)C(F)(F)F [Perfluoro-1-octanesulfonyl chloride]; test: as above; conditions: in DMSO
Method: as §2

[10] = compound: NS(=O)(=O)C(F)(F)C(F)(F)C(F)(F)C(F)(F)C(F)(F)C(F)(F)F [Perfluorohexanesulfonamide]; test: as above; conditions: in DMSO
Method: as §2

Octafluoroadipamide = compound: NC(=O)C(F)(F)C(F)(F)C(F)(F)C(F)(F)C(N)=O [Octafluoroadipamide]; test: as above; conditions: in DMSO
Method: as §2

Nonafluoropentanamide = compound: NC(=O)C(F)(F)C(F)(F)C(F)(F)C(F)(F)F [Nonafluoropentanamide]; test: as above; conditions: in DMSO
Method: as §2

[11] = compound: T2, O=C(O)C(F)(F)C(F)(F)C(F)(F)C(F)(F)C(F)(F)C(F)(F)C(F)(F)C(F)(F)C(F)(F)C(F)F [11-H-Perfluoroundecanoic acid]; test: as above; conditions: in DMSO
Method: as §2

[12] = compound: FC(F)(F)C(F)(F)CNCC(F)(F)C(F)(F)F [Bis(1H,1H-perfluoropropyl)amine]; test: as above; conditions: in DMSO
Method: as §2

[13] = compound: O=S(=O)(O)CCC(F)(F)C(F)(F)C(F)(F)C(F)(F)C(F)(F)C(F)(F)F [6:2 Fluorotelomer sulfonic acid]; test: as above; conditions: in DMSO
Method: as §2

Heptafluorobutyl iodide = compound: FC(F)(F)C(F)(F)C(F)(F)CI [Heptafluorobutyl iodide]; test: as above; conditions: in DMSO
Method: as §2

[14] = compound: C=C(C)C(=O)OCCC(F)(F)C(F)(F)C(F)(F)C(F)(F)C(F)(F)C(F)(F)F [6:2 Fluorotelomer methacrylate]; test: as above; conditions: in DMSO
Method: as §2

[15] = compound: FC(F)(F)C(F)(F)C(F)(F)C(F)(F)C(F)(F)C(F)(F)CC1CO1 [3-(Perfluorohexyl)-1,2-epoxypropane]; test: as above; conditions: in DMSO
Method: as §2

[16] = compound: FC(F)(F)C(F)(F)C(F)(F)CC1CO1 [1H,1H-Heptafluorobutyl epoxide]; test: as above; conditions: in DMSO
Method: as §2

[17] = compound: T2, 11-H-Perfluoroundecanoic acid; test: LOEC (log10 uM (lowest observed effect concentration))
Method: as §1

Test System: 4H Pselectin down
- LOEC (log10 uM) [1]: 1.3

Test System: CASM3C LDLR down
- LOEC (log10 uM) [1]: 1.78

Test System: hDFCGF IL8 down
- LOEC (log10 uM) [1]: 0.845

Test System: BF4T:Keratin 8/18
- level (log10) ([2]; 6700 nM): 0.029 ± 0.02
- level (log10) ([2]; 20000 nM): 0.015 ± 0.042
- level (log10) ([3]; 6700 nM): 0.0285 ± 0.033
- level (log10) ([3]; 20000 nM): 0.003 ± 0.016
- level (log10) ([3]; 60000 nM): 0.0335 ± 0.0092
- level (log10) ([4]; 6700 nM): 0.004 ± 0.042
- level (log10) ([4]; 20000 nM): 0.005 ± 0.011
- level (log10) ([4]; 60000 nM): 0.0135 ± 0.026
- level (log10) ([5]; 6700 nM): -0.018 ± 0.028
- level (log10) ([5]; 20000 nM): -0.0135 ± 0.0021
- level (log10) ([5]; 60000 nM): -0.0035 ± 0.044
- level (log10) ([6]; 1500 nM): 0.02 ± 0.0071
- level (log10) ([6]; 4400 nM): 0.005 ± 0.023
- level (log10) ([6]; 13000 nM): -0.0175 ± 0.015
- level (log10) ([6]; 40000 nM): -0.044 ± 0.023
- level (log10) [7]: 0.0095 ± 0.0092
- level (log10) (Hexafluoroamylene glycol; 6700 nM): 0.0045 ± 0.018
- level (log10) (Hexafluoroamylene glycol; 20000 nM): -0.0075 ± 0.0092
- level (log10) (Hexafluoroamylene glycol; 60000 nM): 0.0125 ± 0.013
- level (log10) ([8]; 6700 nM): -0.031 ± 0.021
- level (log10) ([8]; 20000 nM): -0.054 ± 0.0028
- level (log10) ([9]; 6700 nM): 0.0075 ± 0.00071
- level (log10) ([9]; 20000 nM): 0.0125 ± 0.00071
- level (log10) ([9]; 60000 nM): -0.0805 ± 0.035
- level (log10) ([10]; 6700 nM): -0.01 ± 0.033
- level (log10) ([10]; 20000 nM): -0.019 ± 0.017
- level (log10) ([10]; 60000 nM): -0.065 ± 0.067
- level (log10) (Octafluoroadipamide; 6700 nM): -0.0025 ± 0.0092
- level (log10) (Octafluoroadipamide; 20000 nM): -0.004 ± 0.0014
- level (log10) (Octafluoroadipamide; 60000 nM): 0.017 ± 0.033
- level (log10) (Nonafluoropentanamide; 6700 nM): -0.008 ± 0.013
- level (log10) (Nonafluoropentanamide; 20000 nM): -0.0145 ± 0.015
- level (log10) (Nonafluoropentanamide; 60000 nM): -0.0305 ± 0.042
- level (log10) ([11]; 6700 nM): -0.0025 ± 0.011
- level (log10) ([11]; 20000 nM): -0.062 ± 0.0085
- level (log10) ([12]; 6700 nM): -0.0075 ± 0.0064
- level (log10) ([12]; 20000 nM): -0.019 ± 0.013
- level (log10) ([12]; 60000 nM): 0.015 ± 0.03
- level (log10) ([13]; 6700 nM): 0.0075 ± 0.019
- level (log10) ([13]; 20000 nM): -0.0065 ± 0.016
- level (log10) ([13]; 60000 nM): 0.0045 ± 0.011
- level (log10) (Heptafluorobutyl iodide; 6700 nM): -0.022 ± 0.014
- level (log10) (Heptafluorobutyl iodide; 20000 nM): -0.0265 ± 0.0035
- level (log10) (Heptafluorobutyl iodide; 60000 nM): -0.0045 ± 0.039
- level (log10) ([14]; 6700 nM): -0.0305 ± 0.019
- level (log10) ([14]; 20000 nM): -0.0345 ± 0.044
- level (log10) ([14]; 60000 nM): -0.054 ± 0.013
- level (log10) ([15]; 6700 nM): -0.0045 ± 0.03
- level (log10) ([15]; 20000 nM): -0.014 ± 0.011
- level (log10) ([15]; 60000 nM): 0.015 ± 0.037
- level (log10) ([16]; 6700 nM): -0.001 ± 0.011
- level (log10) ([16]; 20000 nM): -0.0025 ± 0.0064
- level (log10) ([16]; 60000 nM): -0.0235 ± 0.0078

Test System: BE3C:CXCL8/IL-8
- level (log10) ([2]; 6700 nM): 0.0495 ± 0.0021
- level (log10) ([2]; 20000 nM): 0.09 ± 0.013
- level (log10) ([3]; 6700 nM): 0.0175 ± 0.0021
- level (log10) ([3]; 20000 nM): 0.0295 ± 0.011
- level (log10) ([3]; 60000 nM): 0.0615 ± 0.029
- level (log10) ([4]; 6700 nM): 0.025 ± 0.035
- level (log10) ([4]; 20000 nM): 0.0405 ± 0.0078
- level (log10) ([4]; 60000 nM): 0.0565 ± 0.04
- level (log10) ([5]; 6700 nM): -0.0015 ± 0.035
- level (log10) ([5]; 20000 nM): 0.003 ± 0.0057
- level (log10) ([5]; 60000 nM): 0.0545 ± 0.059
- level (log10) ([6]; 1500 nM): 0.0135 ± 0.0035
- level (log10) ([6]; 4400 nM): 0.0345 ± 0.0021
- level (log10) ([6]; 13000 nM): 0.083 ± 0.021
- level (log10) ([6]; 40000 nM): 0.0225 ± 0.037
- level (log10) [7]: -0.0515 ± 0.04
- level (log10) (Hexafluoroamylene glycol; 6700 nM): -0.001 ± 0.031
- level (log10) (Hexafluoroamylene glycol; 20000 nM): -0.003 ± 0.025
- level (log10) (Hexafluoroamylene glycol; 60000 nM): 0.013 ± 0.034
- level (log10) ([8]; 6700 nM): -0.0175 ± 0.0078
- level (log10) ([8]; 20000 nM): -0.007 ± 0.0057
- level (log10) ([9]; 6700 nM): 0.0065 ± 0.005
- level (log10) ([9]; 20000 nM): -0.0605 ± 0.0021
- level (log10) ([9]; 60000 nM): -0.311 ± 0.17
- level (log10) ([10]; 6700 nM): -0.0795 ± 0.044
- level (log10) ([10]; 20000 nM): -0.161 ± 0.0078
- level (log10) ([10]; 60000 nM): -0.3 ± 0.039
- level (log10) (Octafluoroadipamide; 6700 nM): -0.0565 ± 0.013
- level (log10) (Octafluoroadipamide; 20000 nM): -0.0485 ± 0.026
- level (log10) (Octafluoroadipamide; 60000 nM): -0.034 ± 0.083
- level (log10) (Nonafluoropentanamide; 6700 nM): 0.0235 ± 0.019
- level (log10) (Nonafluoropentanamide; 20000 nM): 0.004 ± 0.05
- level (log10) (Nonafluoropentanamide; 60000 nM): 0.0245 ± 0.066
- level (log10) ([11]; 6700 nM): -0.0885 ± 0.016
- level (log10) ([11]; 20000 nM): 0.0475 ± 0.05
- level (log10) ([12]; 6700 nM): -0.041 ± 0.073
- level (log10) ([12]; 20000 nM): -0.0325 ± 0.036
- level (log10) ([12]; 60000 nM): -0.008 ± 0.03
- level (log10) ([13]; 6700 nM): 0.021 ± 0.031
- level (log10) ([13]; 20000 nM): -0.001 ± 0.021
- level (log10) ([13]; 60000 nM): 0 ± 0.021
- level (log10) (Heptafluorobutyl iodide; 6700 nM): 0.029 ± 0.04
- level (log10) (Heptafluorobutyl iodide; 20000 nM): 0.008 ± 0.037
- level (log10) (Heptafluorobutyl iodide; 60000 nM): 0.021 ± 0.021
- level (log10) ([14]; 6700 nM): 0.05 ± 0.086
- level (log10) ([14]; 20000 nM): 0.0325 ± 0.046
- level (log10) ([14]; 60000 nM): 0.043 ± 0.072
- level (log10) ([15]; 6700 nM): 0.0215 ± 0.04
- level (log10) ([15]; 20000 nM): 0.01 ± 0.031
- level (log10) ([15]; 60000 nM): 0.0605 ± 0.015
- level (log10) ([16]; 6700 nM): 0.01 ± 0.062
- level (log10) ([16]; 20000 nM): 0.0235 ± 0.029
- level (log10) ([16]; 60000 nM): 0.0505 ± 0.081

Test System: 3C Eselectin down
- LOEC (log10 uM) [1]: 0.573 ± 0.39

Test System: CASM3C uPAR down
- LOEC (log10 uM) [1]: 1.78

Test System: IMphg SRB down
- LOEC (log10 uM) [17]: 1.78
